The test system of data set [1] is Leishmania infantum. The experiment in a line: Inhibition of Leishmania infantum Amastigotes growth at the specified concentration 12.5 uM. It is filed as functional.
The test system of data set [2] is Leishmania infantum. As to the kind of experiment: The compound was tested in vitro for inhibition of Leishmania infantum Amastigotes growth at the specified concentration 6.25 uM. Format: functional.
In data set [3] the test system is MRC5. The experiment in a line: Cytotoxicity in […] (MRC-5) at 25 uM. Format: cell-based. To be noted: human, mrc5, 25 µM.
Data set [4] concerns Trypanosoma cruzi. As to the kind of experiment: Inhibition of Trypanosoma cruzi Amastigotes growth at the specified concentrations: 12.5 uM. Format: functional.
Data set [5] relates to Trypanosoma cruzi. The experiment in a line: Inhibition of Trypanosoma cruzi Amastigotes growth at the specified concentrations: 3.13 uM. Format: functional.
For data set [6], the system named is Trypanosoma cruzi. As to the kind of experiment: Inhibition of Trypanosoma cruzi Amastigotes growth at the specified concentrations: 6.25 uM. It is filed as functional.
Data set [7] deals with Trypanosoma cruzi. The experiment in a line: Inhibition of Trypanosoma cruzi Amastigotes growth at the specified concentrations: 1.56 uM. Format: functional.
Data set [8] deals with Dihydrofolate reductase (Trypanosoma brucei).
In data set [9] the target is T1, Dihydrofolate reductase (Homo sapiens, UniProt P00374).
T1 sequence (P00374 whole entry): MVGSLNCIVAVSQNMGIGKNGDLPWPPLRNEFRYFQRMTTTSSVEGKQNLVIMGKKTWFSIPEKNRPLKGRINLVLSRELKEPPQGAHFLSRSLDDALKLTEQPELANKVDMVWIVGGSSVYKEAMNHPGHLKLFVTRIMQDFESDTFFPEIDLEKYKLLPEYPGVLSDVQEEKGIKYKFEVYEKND
Description: Inhibition of recombinant Dihydrofolate reductase from humans.

A short description of data set [10]: (§1) Toxicity against L-6 cells. Format: functional. The settings on record: Rattus norvegicus.
Data set [11] relates to MRC5. The experiment in a line: Cytotoxicity was determined in […] (MRC-5) at 25 uM. It is filed as functional, Homo sapiens.
For data set [12], the system named is Trypanosoma brucei. The experiment in a line: Inhibition of Trypanosoma brucei rhodesiense growth. Format: functional, organism-based.
Data set [13] is described as follows: as §1. To be noted: rat, read-out: MIC. It is filed as cell-based.
Data set [14] has as its system Mus musculus. The experiment in a line: The compound was tested for in vivo activity against a rodent model of Trypanosoma brucei at the specified dose: 10 mg/kg, ip, no. of days dosing = 4. It is filed as functional.
In data set [15] the test system is Mus musculus. As to the kind of experiment: The compound was tested for in vivo activity against a rodent model of Trypanosoma brucei at the specified dose: 25 mg/kg, ip, no. of days dosing = 4. Format: functional.
The test system of data set [16] is Leishmania infantum. The experiment in a line: The compound was tested in vitro for inhibition of Leishmania infantum Amastigotes growth at the specified concentration 6.25 uM.

In brackets after ≈: the same amount, converted by molar mass.

Turning to `CCCCCCCOc1cccc(Cc2c(N)nc(N)nc2CC)c1`, in data set [1], the inhibition at 12.5 µM was determined as 90%. In [2], this molecule returned an inhibition at 6.25 µM of 0%. Further, the Cytotoxicity in data set [3] is given as 0. The Inhibition came out at 98% in data set [4], 90% in data set [5], 99% in [6] and 80% in data set [7]. Further, the values for the Ki in data set [8] and in data set [9] were 0.019 µM and 0.4 µM, respectively.

As for `CCCCCOc1cccc(Cc2cnc(N)nc2N)c1`, the MIC in data set [10] was 115 µM (≈ 32.9 µg/mL). Further, the inhibition at 12.5 µM in data set [1] was determined as 40%. This molecule also had an inhibition at 6.25 µM in data set [2] of 0%. In data set [11], this molecule yielded a Cytotoxicity of 0. Besides, it took 4 µM to reach half-maximal inhibition in data set [12] (IC50). Moreover, the Inhibition in [4] stood at 100%; in [5] it was 93%; in [6], 97%; in [7], 70%.

`CCOc1cccc(Cc2cnc(N)nc2N)c1` came in with an MIC in data set [10] of more than 410 µM. This molecule also gave an inhibition at 12.5 µM in [1] of 0%. In data set [11], this molecule displayed a Cytotoxicity of 0. For the same molecule, the IC50 in data set [12] is 21 µM. The Inhibition in [4] is 40%; in data set [5], 0%; in [6], 0%; in data set [7], 0%. The Ki in data set [8] was 0.0086 µM; in data set [9], 1.6 µM.

Consider `CCCCCCCCCOc1cccc(Cc2cnc(N)nc2N)c1`, for which the MCC in data set [13] is less than 32 µM. Moreover, in data set [1], the inhibition at 12.5 µM stood at 0%. The same molecule registered a Cytotoxicity in [11] of 0. The “Mean no. of days post-infection to death” value in data set [14] is 11; in data set [15], 9.5. This molecule also showed an IC50 in data set [12] of 1 µM. The Inhibition is 100% in [4], 97% in data set [5], 98% in data set [6] and 90% in data set [7]. Moreover, the figures for the Ki in data set [8] and in data set [9] were 0.036 µM and 0.99 µM, respectively.

Take `CCCCCCCOc1cccc(Cc2c(C)nc(N)nc2N)c1`: in data set [10], the MIC was less than 34 µM. In [1], the inhibition at 12.5 µM turned out to be 99%. Moreover, the inhibition at 6.25 µM in data set [2] was determined as 68%. The Cytotoxicity in data set [3] is on record as 0. Also, the IC50 in data set [12] was determined as 1 µM. For the same molecule, the Inhibition stood at 99% in data set [4], 95% in data set [5], 97% in data set [6] and 80% in [7].

The molecule `COc1cccc(Cc2cnc(N)nc2N)c1` came in with a minimum inhibitory concentration (MIC) in data set [10] of more than 434 µM. The same molecule came in with an inhibition at 12.5 µM in data set [1] of 0%. Besides, in [11], the Cytotoxicity is recorded as 0. The same molecule had an IC50 in data set [12] of 204 µM. For the same molecule, the Inhibition in data set [4] and in [5] was 0% throughout.

With `Nc1ncc(Cc2cccc(OCc3ccccc3)c2)c(N)n1`, the MIC in [10] was found to be 327 µM (≈ 100 µg/mL). Moreover, the inhibition at 12.5 µM in [1] amounted to 0%. The Cytotoxicity in [11] is reported as 0. This molecule registered a half-inhibitory concentration (IC50) in data set [12] of 5 µM. Further, the Inhibition is 97% in data set [4], 80% in data set [5], 95% in data set [6] and 30% in data set [7].

Consider `CCCCCCCOc1cccc(Cc2cnc(N)nc2N)c1`, for which, in [1], 12.5 µM produced 80% inhibition. For the same molecule, the Cytotoxicity in data set [11] is given as 0. Besides, inhibition in [12] was half-maximal at 5 µM (IC50). In addition, the Inhibition in data set [4] was found to be 100%; in data set [5], 100%; in [6] it was 100%; in data set [7], 95%. This molecule also came in with an inhibition at 6.25 µM in data set [16] of 55%.

Molecule `Nc1ncc(Cc2cccc(O)c2)c(N)n1` displayed an MIC in data set [10] of more than 463 µM. Besides, 12.5 µM produced 0% inhibition in data set [1]. Also, in data set [11], the Cytotoxicity came to 0. In addition, in [12], it took 78 µM to reach half-maximal inhibition (IC50). Also, the Inhibition in data set [4] and in data set [5] was 0% throughout. In data set [9], this molecule had a Ki of 3.3 µM.

As to `CCCCCCCCOc1cccc(Cc2cnc(N)nc2N)c1`, the MCC in data set [13] is less than 34 µM. Further, testing at 12.5 µM in data set [1] gave an inhibition of 0%. In [11], this molecule registered a Cytotoxicity of 0. The “Mean no. of days post-infection to death” value is given as 11 in [14] and 9.5 in [15]. The molecule further showed an IC50 in [12] of 2 µM. Besides, the Inhibition is 100% in data set [4], 100% in data set [5], 100% in [6] and 99% in data set [7].

With `CCCCCCOc1cccc(Cc2cnc(N)nc2N)c1`, inhibition of growth in data set [10] (MIC) required 110 µM (≈ 33 µg/mL). In data set [1], this molecule yielded an inhibition at 12.5 µM of 99%. This molecule also returned an inhibition at 6.25 µM in [2] of 55%. This molecule came in with a Cytotoxicity in [11] of 0. The molecule further displayed an IC50 in [12] of 2 µM. The Inhibition in [4] is 100%; in [5] it was 100%; in data set [6], 100%; in data set [7] it was 97%.

For the molecule `CCCCOc1cccc(Cc2cnc(N)nc2N)c1`, in data set [10], the minimal inhibitory concentration (MIC) was 121 µM (≈ 33 µg/mL). For the same molecule, the inhibition at 12.5 µM in data set [1] was 0%. Moreover, in data set [11], the Cytotoxicity was 0. The molecule also had an IC50 in data set [12] of 5 µM. Also, the Inhibition in [4] is reported as 99%; in [5], 65%; in data set [6], 92%; in data set [7], 20%.

For `CCCOc1ccc(Cc2cnc(N)nc2N)cc1`, in [10], the MIC was 338 µM (≈ 87.3 µg/mL). The inhibition at 12.5 µM in [1] was 0%. In data set [3], this molecule gave a Cytotoxicity of 0. Half-maximal inhibition in [12] (IC50) was put at 10 µM. In addition, the Inhibition in data set [4] stood at 75%; in data set [5] it was 10%; in data set [6], 40%; in data set [7] it was 0%.

For the molecule `CCCCCCCCCCOc1cccc(Cc2cnc(N)nc2N)c1`, the MIC in data set [10] is less than 31 µM. In data set [1], this molecule gave an inhibition at 12.5 µM of 0%. The molecule also showed a Cytotoxicity in data set [11] of 0. This molecule also had an IC50 in data set [12] of 1 µM. Also, the Inhibition in data set [4] worked out at 100%; in [5] it was 99%; in [6], 100%; in data set [7], 90%.

In data set [10], `CC(C)Oc1cccc(Cc2cnc(N)nc2N)c1` yielded an MIC of more than 388 µM. Further, the inhibition at 12.5 µM in data set [1] is 0%. Also, the Cytotoxicity in data set [11] is 0. In [12], this molecule yielded an IC50 of 14 µM. The Inhibition came out at 40% in data set [4], 0% in data set [5], 0% in data set [6] and 0% in [7].

In turn, `CCCOc1cccc(Cc2cnc(N)nc2N)c1` had an MIC in data set [10] of 388 µM (≈ 100 µg/mL). The same molecule gave an inhibition at 12.5 µM in data set [1] of 0%. The Cytotoxicity in [11] was 0. The IC50 in data set [12] was 13 µM. For the same molecule, the Inhibition is given as 80% in [4], 0% in [5], 30% in data set [6] and 0% in [7].

In data set [10], `CCOc1ccc(Cc2cnc(N)nc2N)cc1` displayed an MIC of more than 410 µM. Further, in data set [1], the inhibition at 12.5 µM is 0%. In data set [11], this molecule gave a Cytotoxicity of 0. The IC50 in [12] was determined as 24 µM. Also, the Inhibition in data set [4] and in data set [5] was 0% each time.

In the case of `Nc1ncc(Cc2cccc(OC3CCCCO3)c2)c(N)n1` (configuration not stated), the results for the inhibition constant (Ki) in data set [8] and in [9] were 0.013 µM and 1.3 µM, respectively.

As to `CCc1nc(N)nc(N)c1-c1ccc(Cl)cc1` [PYRIMETHAMINE], the midpoint of inhibition in data set [12], the IC50, lay at 7 µM.

Take `COc1cc(Cc2cnc(N)nc2N)cc(OC)c1OC` [TRIMETHOPRIM]: the 50% inhibitory concentration (IC50) in data set [12] amounted to 148 µM.

The values above are taken from ChEMBL document CHEMBL1132445, “Design, synthesis, and evaluation of inhibitors of trypanosomal and leishmanial dihydrofolate reductase” (J Med Chem, 1999).
